Results on eight compounds are retold here after US9334231B2, “Photoreactive synthetic regulator of protein function and methods of use thereof” (The Regents of the University of California, priority 2008, dated 2016).

Broadly, the IC50 is the point on the concentration scale where inhibition reaches its midpoint.

Counter-ions that a name gives are not always drawn.

Data set [1] concerns the target T1, Shaker IR channels (Sh-IR) (Drosophila melanogaster, UniProt P08510, DEL6-46).
T1 construct: expressed in transfected cells; host or cells: HEK293 / HEK293T cells, calcium phosphate transfection
Nature of the data set: Whole-cell patch clamp of HEK293 cells expressing Shaker IR after AAQ/EtAcAQ/AcAQ treatment. The format is cell-based. The conditions noted are these: 500-nm and 380-nm light; for block of steady-state current: after blocker pre-treatment (400 uM in FIG. 2).

The next data set addresses T2, Sh-IR (Drosophila melanogaster, UniProt P08510, DEL6-46).
T2 construct: expressed in transfected cells; host or cells: HEK293 / HEK293T cells, calcium phosphate transfection
Nature of the data set: AzoQA structure-activity screen: HEK293T cells expressing Sh-IR, applied in dark, washout, whole-cell voltage clamp. The format is cell-based. The conditions noted are these: for isomer preference of block: cis (380 nm) versus trans (500 nm). An excerpt:
Solutions were adjusted to 300-310 mOsm.
These AzoQA's were applied in dark, which favors the trans configuration, at various concentrations to HEK293T cells expressing Sh-IR, followed by washout and whole-cell voltage clamp recording.

Data set [2] can be described thus: Isomerization wavelengths of red-shifted regulator. The format is physicochemical.
The next data set relates to Kν channels. Description: Stated characteristics of exemplary synthetic regulators (channel block).
For data set [3] the following is noted: illumination at 420 nm.
Data set [4] addresses T3, Sh-IR internal TEA binding site (Drosophila melanogaster, UniProt P08510, DEL6-46).
T3 construct: expressed in transfected cells; host or cells: HEK293 / HEK293T cells, calcium phosphate transfection
Description: Inside-out patches from HEK293 cells expressing Sh-IR, dose-response under 380 and 500 nm light. The format is cell-based. The conditions noted are these: inside-out patch.

The test system of data set [5] is endogenous K+ channels in dissociated hippocampal neurons. Particulars: preincubation at 300 nM; cited from earlier work.
For a further data set, the system named is neurons. Nature of the data set: Neuron firing under current clamp with QAQ. The format is cell-based. The conditions noted are these: progressively greater current injected. From the text:
The effect of QAQ on neurons was investigated. Neuron firing was examined under current clamp, by injecting progressively greater current into the cell, under 2 different wavelengths of light. […] This is because block of Na channels dominates: when Na channels are blocked, the initial phase of the AP is blocked and neurons are silent. Again, QAQ acts like lidocaine in neurons, silencing cells under green light or in the dark.

For data set [6], the system named is native Na channels expressed in NG108-15 cells (Naν). Description: QAQ photoswitching of native Na channels in NG108-15 cells. The format is cell-based. Here is the method: (§1) Experiments were conducted to test the effect of QAQ on various channels.
(§2) Purple light was used in all cases to relieve the block. FIG. 6 depicts a bar graph showing the quantification of photoswitching on individual channels when having 100 μM QAQ in the pipette.

Data set [7] concerns the target T4, P2X7R (Homo sapiens, UniProt Q99572).
T4 construct: expressed in transfected cells; host or cells: HEK cells, co-expressed with Shaker channel
T4 sequence (Q99572 1-595): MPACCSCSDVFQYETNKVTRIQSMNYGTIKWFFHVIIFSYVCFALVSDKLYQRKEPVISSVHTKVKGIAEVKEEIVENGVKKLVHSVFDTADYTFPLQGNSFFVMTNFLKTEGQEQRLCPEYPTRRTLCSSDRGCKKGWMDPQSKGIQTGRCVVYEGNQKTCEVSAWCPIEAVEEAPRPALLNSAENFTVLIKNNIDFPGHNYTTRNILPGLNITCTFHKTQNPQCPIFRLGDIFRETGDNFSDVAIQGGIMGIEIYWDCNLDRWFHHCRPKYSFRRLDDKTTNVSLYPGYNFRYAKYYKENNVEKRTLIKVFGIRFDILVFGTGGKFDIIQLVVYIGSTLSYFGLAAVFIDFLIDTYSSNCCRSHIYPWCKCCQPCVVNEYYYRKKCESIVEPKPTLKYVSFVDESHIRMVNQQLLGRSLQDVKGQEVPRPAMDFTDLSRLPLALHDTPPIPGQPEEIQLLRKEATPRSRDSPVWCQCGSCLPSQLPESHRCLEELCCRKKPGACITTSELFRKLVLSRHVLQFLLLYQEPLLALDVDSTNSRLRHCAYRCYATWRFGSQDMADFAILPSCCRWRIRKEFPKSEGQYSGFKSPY
Description: Loading of QAQ into hippocampal neurons transfected with P2X7R. The format is cell-based. An excerpt: (§3) Hippocampal neurons were transfected with P2X7R. […] In 1 of 13 cells tested, QAQ entered a cell which was not heterologously expressing P2X7R, possibly because this cell was expressing endogenous P2X7 receptors. It was then asked whether QAQ could enter cells naturally expressing either of these channels and looked at sensory neurons. Sensory neurons are activated by sensory input and project towards the central nervous system. Sensory neurons of the trigeminal ganglia naturally express TRPV1 channels. QAQ was applied together with capsaicin on these sensory neurons in in vitro culture.

The test system of data set [8] is L type and N type Ca channels (L-type Caν, Caν2.2). Description: QAQ photoswitching of Ca channels. The format is cell-based. As to the method: as §1, §2
In data set [9] the test system is native K channels of sensory neurons naturally expressing TRPV1. Description: QAQ with capsaicin on sensory neurons of the trigeminal ganglia in culture. The format is cell-based. The conditions noted are these: QAQ applied together with capsaicin.
From the text: as §3

The next data set deals with T5, TRPV1 (Homo sapiens, UniProt Q8NER1).
T5 construct: expressed in transfected cells; the context is HEK cells
Nature of the data set: Loading of QAQ through TRPV1 in cells co-expressing Shaker channel. The format is cell-based. From the text: (§4) Advantage was taken of the biophysical properties of certain ion channels. TRPV1 channel and the ATP gated P2X7 receptor can open a wide pore upon prolonged agonist exposure. This pore becomes then permeable to large organic cations like the local anesthetic QX314. It was investigated whether QAQ could be loaded into cells expressing either one of these two channels (P2X7R or TRPV1). If so, specific cells could be targeted with QAQ, and then excitability could be controlled with light. This concept is depicted schematically in FIG. 8.
(§5) It was first determined whether P2X7R expressed in HEK cells could be an entry route for QAQ. P2X7R was co-expressed together with Shaker channel.

The next data set addresses T6, Shaker channel (Drosophila melanogaster, UniProt P08510).
T6 construct: expressed in transfected cells; host or cells: HEK cells
Description: QAQ membrane permeance: patch pipette versus external application, HEK cells expressing Shaker channel. The format is cell-based. An excerpt:
The K current was observed upon a depolarization to +40 mV under purple 380 nm light.

The test system of data set [10] is capsaicin-evoked nocifensive behaviors. Description: Capsaicin-evoked nocifensive behaviors after hindpaw injection. Particulars: co-injection with capsaicin into hindpaw, 10 min, versus capsaicin alone. The format is in vivo, mouse. Here is the method: It was shown (Example 3) that QAQ blocks capsaicin-evoked sensory neuron activation in vitro, in a light-dependent manner. It was then tested whether QAQ can block nocifensive responses in vivo, and whether this action can be regulated by light. This experiment consisted of 2 parts: (1) it was tested whether QAQ acts as an analgesic, in the absence of light. […] Injection of capsaicin into the mouse hindpaw elicits a 5-10 min bout of licking and flinching; such responses are blocked by co-application of lidocaine, morphine, and other analgesics (Binshtock et al., 2007 Nature 449:607-10). Because analgesics are molecules that alleviate pain, evaluating the analgesic properties of a new molecule requires induction of discomfort in animals. The ability of QAQ to inhibit capsaicin-evoked nocifensive behaviors was tested. Fourteen mice were used for this experiment: to one set of 7 mice, capsaicin alone was applied by injection; to a second set of 7 mice, capsaicin and QAQ were co-injected. The mice were then placed in a transparent Plexiglas chamber and behavior was video recorded for 10 min. After 10 min, mice were euthanized.

In data set [11] the target is T4, P2X7R. Nature of the data set: Loading of QAQ through P2X7R in HEK cells co-expressing Shaker channel. The format is cell-based.
From the text: as §4, §5

The test system of data set [12] is Shaker K channel, Kν2.1, Kν3.1, Kν4.2, hippocampal Kν. Nature of the data set: QAQ photoswitching of voltage gated K channels (QAQ in the pipette). The format is cell-based. As to the method:
as §1, §2

Data set [13] deals with endogenous K+ channels in dissociated hippocampal neurons.
The mark [14] stands for this setting: 100 μM QAQ in the pipette, purple light relieves block.

T6 sequence (P08510 whole entry): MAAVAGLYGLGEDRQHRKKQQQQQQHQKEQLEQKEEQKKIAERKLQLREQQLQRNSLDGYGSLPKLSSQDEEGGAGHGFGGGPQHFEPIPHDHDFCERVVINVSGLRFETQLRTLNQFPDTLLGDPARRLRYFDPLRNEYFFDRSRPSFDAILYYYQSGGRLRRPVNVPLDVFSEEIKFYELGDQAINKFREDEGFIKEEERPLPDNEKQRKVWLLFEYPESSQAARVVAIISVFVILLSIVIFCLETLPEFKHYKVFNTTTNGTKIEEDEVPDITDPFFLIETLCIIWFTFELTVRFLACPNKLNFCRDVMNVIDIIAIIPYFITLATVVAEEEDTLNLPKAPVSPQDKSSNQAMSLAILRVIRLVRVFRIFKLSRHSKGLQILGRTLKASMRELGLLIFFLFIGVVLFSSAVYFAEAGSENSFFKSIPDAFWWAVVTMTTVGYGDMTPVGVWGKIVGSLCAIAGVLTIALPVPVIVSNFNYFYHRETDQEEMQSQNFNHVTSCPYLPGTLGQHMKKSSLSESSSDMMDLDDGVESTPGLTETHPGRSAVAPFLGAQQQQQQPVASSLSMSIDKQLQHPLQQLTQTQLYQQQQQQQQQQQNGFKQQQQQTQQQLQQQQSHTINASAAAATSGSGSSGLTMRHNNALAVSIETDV
T1 sequence (P08510 other isoform, or with tags, fused parts or gaps DEL6-46): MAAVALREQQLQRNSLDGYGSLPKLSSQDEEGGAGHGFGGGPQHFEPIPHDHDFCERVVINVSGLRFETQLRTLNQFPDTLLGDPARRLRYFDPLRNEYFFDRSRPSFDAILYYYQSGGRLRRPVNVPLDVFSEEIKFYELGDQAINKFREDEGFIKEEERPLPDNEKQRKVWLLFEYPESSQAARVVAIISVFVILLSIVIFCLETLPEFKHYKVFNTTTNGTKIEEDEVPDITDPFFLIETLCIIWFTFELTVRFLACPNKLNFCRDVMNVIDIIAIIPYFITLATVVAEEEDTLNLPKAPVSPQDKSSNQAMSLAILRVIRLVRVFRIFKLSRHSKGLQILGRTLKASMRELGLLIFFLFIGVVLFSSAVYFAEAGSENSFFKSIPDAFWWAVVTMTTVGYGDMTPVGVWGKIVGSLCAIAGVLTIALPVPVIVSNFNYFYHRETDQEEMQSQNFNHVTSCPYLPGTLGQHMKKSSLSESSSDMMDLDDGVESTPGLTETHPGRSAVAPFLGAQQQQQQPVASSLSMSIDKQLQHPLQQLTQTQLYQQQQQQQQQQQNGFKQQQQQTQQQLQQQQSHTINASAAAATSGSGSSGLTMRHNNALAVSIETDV
T2 sequence (P08510 other isoform, or with tags, fused parts or gaps DEL6-46): as above
T3 sequence (P08510 with tags, fused parts or gaps DEL6-46): as the sequence (P08510 other isoform, or with tags, fused parts or gaps DEL6-46) above
T5 sequence (Q8NER1 whole entry, species assumed): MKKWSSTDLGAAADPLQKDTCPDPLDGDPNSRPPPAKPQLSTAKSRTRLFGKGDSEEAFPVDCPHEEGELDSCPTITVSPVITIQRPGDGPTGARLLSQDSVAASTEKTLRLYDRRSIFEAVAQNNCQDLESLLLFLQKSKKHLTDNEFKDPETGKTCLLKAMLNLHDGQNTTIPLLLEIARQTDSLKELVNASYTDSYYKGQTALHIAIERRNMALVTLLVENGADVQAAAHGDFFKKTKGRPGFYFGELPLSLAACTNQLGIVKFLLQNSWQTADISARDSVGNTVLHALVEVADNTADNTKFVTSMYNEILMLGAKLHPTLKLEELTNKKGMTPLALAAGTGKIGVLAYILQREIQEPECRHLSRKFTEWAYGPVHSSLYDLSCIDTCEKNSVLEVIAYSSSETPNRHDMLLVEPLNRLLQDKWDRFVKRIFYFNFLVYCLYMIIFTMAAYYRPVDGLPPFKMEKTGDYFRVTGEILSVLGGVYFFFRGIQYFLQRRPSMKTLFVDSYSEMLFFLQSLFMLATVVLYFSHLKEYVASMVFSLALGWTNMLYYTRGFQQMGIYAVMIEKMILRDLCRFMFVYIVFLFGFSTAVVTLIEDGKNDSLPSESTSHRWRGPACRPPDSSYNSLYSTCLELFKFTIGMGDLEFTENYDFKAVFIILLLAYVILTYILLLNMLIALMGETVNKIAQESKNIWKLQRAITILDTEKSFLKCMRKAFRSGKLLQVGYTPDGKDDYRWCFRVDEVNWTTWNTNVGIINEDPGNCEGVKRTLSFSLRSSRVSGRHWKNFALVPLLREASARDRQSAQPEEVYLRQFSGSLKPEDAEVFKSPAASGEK

Consider `CC[N+](CC)(CC)CC(=O)Nc1ccc(N=Nc2ccc(NC(C)=O)cc2)cc1.O=C[O-]` [AcAQ, 4-acetamido-4′-(2)-triethylammoniumacetamidoazobenzene formate], for which, in data set [1], the “block of steady-state current” value was “persistently blocked the steady-state current in a light-dependent fashion”. Also, the photoswitching after pre-treatment result in [1] (extracellular pre-treatment) was “considerable sustained photoswitching”.
Turning to `C=CCCC(=O)Nc1ccc(N=Nc2ccc(NC(=O)C[N+](CC)(CC)CC)cc2)cc1.O=C[O-]` [compound 10, 4-(pent-4-en)amido-4′-(2)-triethylammoniumacetamidoazobenzene formate], the “isomer preference of block” value on Sh-IR was “essentially equal block in both cis and trans forms”.
On to `CCCc1ccc(N=Nc2ccc(NC(=O)C[N+](CC)(CC)CC)cc2)cc1.O=C[O-]` [PrAQ, 4-propyl-4′-(2)-triethylammoniumacetamidoazobenzene formate], for which the “block of Iss in the cis form” value at Sh-IR (40 nM) was 50%. The “block by the trans isomer” value on Sh-IR (40 nM, 500 nm) is reported as “without producing obvious block”. At Sh-IR, the “isomer preference of block” value is on record as “preferentially blocks in the cis form”.
As for `CCN(CC)c1ccc(/N=N/c2ccc(NC(=O)C[N+](CC)(CC)CC)cc2)cc1` [DAAQ], in [2], the “wavelength of first isomeric form” value worked out at 472 nm and the “wavelength of second isomeric form” value is on record as 550 nm. Further, in the data set on Kν channels, the “channels blocked / selectivity” value is “able to block Kν channels”, the “external or internal blocker” value was “external blocker” and the “isomeric form that blocks” value is listed as “trans-blocker”.
As to `CCC(=O)Nc1ccc(N=Nc2ccc(NC(=O)C[N+](CC)(CC)CC)cc2)cc1` [EtAcAQ], in [1], the “block of steady-state current” value is recorded as “persistently blocked the entire steady-state current in a light-dependent fashion”.
Consider `C=CC(=O)Nc1ccc(/N=N/c2ccc(NC(=O)C[N+](CC)(CC)CC)cc2)cc1` [AAQ, Acrylamide Azobenzene Quaternary ammonium], for which the cis isomer content in data set [3] came out at 50%. The “current block after washout with control solution” value in data set [4] is on record as “relieved within several seconds of washout”. Further, the IC50 in [4] (380 nm light, n=3-5, read-out: IC50 (cis isomer)) was determined as 64 µM. For the same compound, in [5], the “photosensitization of endogenous K+ channels” value is listed as “strongly photosensitize endogenous K^+”.
For the compound `CC[N+](CC)(CC)CC(=O)Nc1ccc(/N=N/c2ccc(NC(=O)C[N+](CC)(CC)CC)cc2)cc1` [QAQ], in the data set with neurons, the “neuron firing under green light” value is “does at best one action potential (AP), but remains silent” and the “neuron firing under purple light” value was “fires normally”. Further, the “photosensitization of Na channels” value in [6] is given as “photosensitizes native Na channels expressed in NG108-15 cells”. Further, in data set [6] (setting [14]), the “light condition of block” value was “the block occurred in the dark, or under 500 nm light”. Further, the “loading into hippocampal neurons” value on P2X7R [7] (ATP) was “could be loaded into cells only when P2X7 receptors were expressed”. Also, the “cells not heterologously expressing P2X7R that QAQ entered” value at P2X7R [7] (cells tested) is given as 1 of 13. Moreover, in data set [8], the “photosensitization of Ca channels” value is “photosensitize L type and N type Ca channels”. In data set [8] (setting [14]), the “light condition of block” value is “the block occurred in the dark, or under 500 nm light”. The “photoswitching of native K channels” value in data set [9] is recorded as “very robust photoswitching of native K channels”. The loading into cells result at TRPV1 (TRPV1 co-expressed with Shaker, capsaicin) is “could be loaded into cells co-expressing TRPV1 and Shaker channel in the presence of the TRPV1 agonist capsaicin”. Also, the photoswitching result at TRPV1 (loaded in the presence of capsaicin) is given as “photoswitching could be effected”. Also, the membrane permeance result on Shaker channel is recorded as “membrane impermeant”. The “photoregulation of K current, applied through the patch pipette” value at Shaker channel (100 μM QAQ, +40 mV, 380 nm versus green light) is “photoregulation of the K channel current was observed”. In addition, the “photoregulation of K current, externally applied” value on Shaker channel (external application) is listed as “no photoregulation of K current was seen”. Besides, in the data set with Kν channels, the “channels blocked / selectivity” value was “able to block Kν, Naν, and Caν channels”; the “external or internal blocker” value is given as “internal blocker”; the “isomeric form that blocks” value is “trans-blocker”. Further, in data set [10], the number of licks entry is “reduced” and the “time spent paw lifting” value is “reduced”. Also, on P2X7R [11] (P2X7R co-expressed with Shaker, ATP coapplied), the “loading into HEK cells” value is “could be loaded in the HEK cell only if P2X7 channels were expressed and ATP, the agonist for the P2X7 channels, was coapplied”. Moreover, at P2X7R [11] (application of 5 min with ATP), the “photoswitching of Shaker channels current” value was “very good photoswitching”. Also, the “photoregulation of K channels” value in data set [12] was “photoregulate Shaker K channel and also other K channel subtypes such as Kν2, Kν3 Kν4 and native K channels in hippocampal cells”. For the same compound, the “light condition of block” value in [12] (setting [14]) is “the block occurred in the dark, or under 500 nm light”.
`CC[N+](CC)(CC)CC(=O)Nc1ccc(/N=N/c2ccc(NC(=O)c3ccccc3)cc2)cc1` [BzAQ, 4-benzamido-4′-(2)-triethylammoniumacetamidoazobenzene formate]: in the data set on Kν channels, the “channels blocked / selectivity” value is reported as “selective for Kν channels”, the “external or internal blocker” value is on record as “external blocker” and the “isomeric form that blocks” value is “trans-blocker”. Also, the Iss blocked in data set [13] (20 μM BzAQ extracellular, Iss at +30 mV compared at 380 and 500 nm) is on record as 57+/−6.6%. The action potential firing result in [13] (current clamp, cell near threshold, 500 nm light) was “sufficient to induce action potential firing”. Also, the “effect on cellular membrane potential” value in data set [13] (current clamp, switched from cis to trans) is listed as “significantly depolarize the cellular membrane potential”. Further, the “minimal dose able to block >95% of Iss” value on Sh-IR (Iss relative to that under 380 nm illumination, extracellular treatment in dark) was determined as 25 µM.
